# In PMC4354951 (European journal of medicinal chemistry, 2008):
# Several values for one entry are separate records, joined by “and”; a condition that tells them apart may be missing. Equal values may be shown once. Entries after “also recorded” stand apart in the source; their conditions may differ.
# Assays:
# [1] = target: T1, human NPP3 (Homo sapiens, UniProt O14638); assay: Hydrolysis by NPP3; assay type: biochemical; details: 100 μM substrate; relative to pnp-TMP hydrolysis (100%)
# T1 sequence (O14638 1-875): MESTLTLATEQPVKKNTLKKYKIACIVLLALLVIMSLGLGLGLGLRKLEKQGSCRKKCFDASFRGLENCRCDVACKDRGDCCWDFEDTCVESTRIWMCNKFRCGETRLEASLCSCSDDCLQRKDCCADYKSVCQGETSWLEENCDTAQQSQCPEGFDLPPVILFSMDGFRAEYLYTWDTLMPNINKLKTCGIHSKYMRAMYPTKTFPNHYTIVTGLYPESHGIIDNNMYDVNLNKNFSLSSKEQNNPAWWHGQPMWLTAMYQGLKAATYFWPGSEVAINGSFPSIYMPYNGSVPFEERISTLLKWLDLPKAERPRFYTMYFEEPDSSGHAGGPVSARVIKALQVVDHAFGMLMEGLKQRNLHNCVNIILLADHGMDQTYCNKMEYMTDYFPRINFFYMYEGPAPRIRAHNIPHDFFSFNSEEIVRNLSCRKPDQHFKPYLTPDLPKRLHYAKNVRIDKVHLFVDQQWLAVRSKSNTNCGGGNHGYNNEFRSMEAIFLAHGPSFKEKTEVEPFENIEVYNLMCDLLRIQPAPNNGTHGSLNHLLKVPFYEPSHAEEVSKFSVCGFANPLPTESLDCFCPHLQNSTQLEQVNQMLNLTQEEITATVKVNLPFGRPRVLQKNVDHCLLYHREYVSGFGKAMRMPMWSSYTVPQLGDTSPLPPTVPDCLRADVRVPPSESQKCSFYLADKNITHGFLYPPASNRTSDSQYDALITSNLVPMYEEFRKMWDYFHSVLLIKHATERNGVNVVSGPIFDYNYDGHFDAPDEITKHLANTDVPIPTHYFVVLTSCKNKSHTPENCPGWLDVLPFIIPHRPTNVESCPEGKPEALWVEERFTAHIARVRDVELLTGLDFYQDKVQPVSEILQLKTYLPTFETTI
# [2] = target: T2, human NPP1 (Homo sapiens, UniProt P22413); assay: Hydrolysis by NPP1; assay type: biochemical; details: 100 μM substrate; relative to pnp-TMP hydrolysis (100%)
# T2 sequence (P22413 1-925): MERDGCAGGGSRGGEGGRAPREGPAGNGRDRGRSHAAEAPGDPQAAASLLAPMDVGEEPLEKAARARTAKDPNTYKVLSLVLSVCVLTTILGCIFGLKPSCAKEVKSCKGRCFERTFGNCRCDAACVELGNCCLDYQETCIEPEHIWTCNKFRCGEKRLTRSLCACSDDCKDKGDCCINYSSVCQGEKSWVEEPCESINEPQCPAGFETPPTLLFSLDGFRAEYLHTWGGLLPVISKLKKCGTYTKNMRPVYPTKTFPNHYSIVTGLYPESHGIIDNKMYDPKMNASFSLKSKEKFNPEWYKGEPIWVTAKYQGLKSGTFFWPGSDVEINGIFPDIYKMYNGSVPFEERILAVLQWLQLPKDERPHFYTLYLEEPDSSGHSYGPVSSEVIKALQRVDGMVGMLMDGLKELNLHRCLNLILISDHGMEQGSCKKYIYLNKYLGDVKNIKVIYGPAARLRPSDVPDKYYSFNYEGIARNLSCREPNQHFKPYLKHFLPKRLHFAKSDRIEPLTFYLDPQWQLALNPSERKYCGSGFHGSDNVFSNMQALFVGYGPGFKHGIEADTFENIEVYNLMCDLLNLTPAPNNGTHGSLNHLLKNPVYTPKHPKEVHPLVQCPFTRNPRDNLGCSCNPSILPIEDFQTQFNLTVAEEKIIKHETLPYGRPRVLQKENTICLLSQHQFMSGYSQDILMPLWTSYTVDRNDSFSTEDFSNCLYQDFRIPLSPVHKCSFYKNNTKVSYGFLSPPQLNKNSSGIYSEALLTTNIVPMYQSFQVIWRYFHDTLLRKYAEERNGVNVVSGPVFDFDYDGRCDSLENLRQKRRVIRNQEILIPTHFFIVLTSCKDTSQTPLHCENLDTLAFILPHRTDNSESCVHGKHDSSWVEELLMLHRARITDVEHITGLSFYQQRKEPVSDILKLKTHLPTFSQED
# [3] = target: human P2Y2 receptor (Homo sapiens, UniProt P41231); assay: Increase in [Ca2+]i in 1321N1 astrocytoma cells expressing P2Y2 receptor; assay type: cell-based; details: 1321N1 cell transfectants; for EC50: read-out: EC50 of analogue-induced increase in [Ca2+]i, P2Y2
# Sequence of human P2Y2 receptor (P41231 whole entry): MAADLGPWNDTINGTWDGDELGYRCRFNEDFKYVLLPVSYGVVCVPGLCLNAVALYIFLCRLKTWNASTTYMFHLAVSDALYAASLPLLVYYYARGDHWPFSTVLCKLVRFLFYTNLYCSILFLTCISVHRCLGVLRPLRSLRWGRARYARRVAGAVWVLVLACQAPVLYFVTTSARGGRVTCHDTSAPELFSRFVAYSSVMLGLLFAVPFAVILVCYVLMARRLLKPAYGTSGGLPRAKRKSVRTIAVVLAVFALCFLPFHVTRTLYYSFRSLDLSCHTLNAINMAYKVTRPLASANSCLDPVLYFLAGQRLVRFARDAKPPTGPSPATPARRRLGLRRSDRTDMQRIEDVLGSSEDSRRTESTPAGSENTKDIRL
# [4] = target: T3, human NTPDase3 (Homo sapiens, UniProt O75355); assay: Hydrolysis by NTPDase3; assay type: biochemical; details: 100 μM substrate; relative to ATP hydrolysis (100%)
# T3 sequence (O75355 1-529): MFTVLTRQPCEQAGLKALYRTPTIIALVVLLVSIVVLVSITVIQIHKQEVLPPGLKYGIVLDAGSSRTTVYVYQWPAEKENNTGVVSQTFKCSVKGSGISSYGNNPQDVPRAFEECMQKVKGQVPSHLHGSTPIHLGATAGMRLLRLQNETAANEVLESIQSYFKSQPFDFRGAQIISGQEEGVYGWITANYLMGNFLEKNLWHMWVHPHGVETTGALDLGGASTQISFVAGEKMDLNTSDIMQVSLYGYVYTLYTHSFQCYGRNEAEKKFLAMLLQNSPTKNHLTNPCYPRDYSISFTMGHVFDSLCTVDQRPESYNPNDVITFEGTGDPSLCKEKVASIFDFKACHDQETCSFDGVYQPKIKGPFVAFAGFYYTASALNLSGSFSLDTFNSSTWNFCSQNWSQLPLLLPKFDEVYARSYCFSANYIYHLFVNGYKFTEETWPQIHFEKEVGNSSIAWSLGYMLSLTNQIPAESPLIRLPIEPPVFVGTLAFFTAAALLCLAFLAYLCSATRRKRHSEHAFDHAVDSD
# [5] = target: T4, human NTPDase1 (Homo sapiens, UniProt P49961); assay: Hydrolysis by NTPDase1; assay type: biochemical; details: 100 μM substrate; relative to ATP hydrolysis (100%)
# T4 sequence (P49961 1-510): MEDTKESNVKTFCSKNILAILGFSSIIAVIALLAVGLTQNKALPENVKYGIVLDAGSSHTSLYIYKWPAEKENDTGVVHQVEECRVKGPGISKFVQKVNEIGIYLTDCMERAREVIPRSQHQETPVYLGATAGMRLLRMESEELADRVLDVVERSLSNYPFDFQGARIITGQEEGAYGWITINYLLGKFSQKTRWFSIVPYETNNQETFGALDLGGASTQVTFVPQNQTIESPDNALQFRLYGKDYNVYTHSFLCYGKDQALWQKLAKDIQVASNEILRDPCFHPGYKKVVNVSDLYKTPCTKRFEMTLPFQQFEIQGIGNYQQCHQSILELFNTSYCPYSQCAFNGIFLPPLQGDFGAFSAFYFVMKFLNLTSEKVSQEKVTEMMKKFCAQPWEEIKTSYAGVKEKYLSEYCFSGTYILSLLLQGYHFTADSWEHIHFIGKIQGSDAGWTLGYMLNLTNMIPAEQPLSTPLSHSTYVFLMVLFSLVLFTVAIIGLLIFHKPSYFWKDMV
Compound,Relative activity of NPP3 [1],Relative activity of NPP1 [2] [%],agonist activity at P2Y2R [3],EC50 [3] [µM],Relative activity of NTPDase3 [4] [%],Relative activity of NTPDase1 [5] [%]
"[BH3-][P+](O)(OC[C@H]1O[C@@H](n2cnc3c(N)ncnc32)[C@H](O)[C@@H]1O)OP(=O)(O)CP(=O)(O)O (single isomer, unassigned) [3B, Adenosine-5′-O-(α-boranotriphosphate)-β,γ-CH2]",3.0 ± 0.05%,4.0 ± 0.12,insignificant activities,> 100,6.0 ± 0.16,0
"[BH3-][P+](O)(OC[C@H]1O[C@@H](n2cnc3c(N)ncnc32)[C@H](O)[C@@H]1O)OP(=O)(O)CP(=O)(O)O (single isomer, unassigned) [3A, Adenosine-5′-O-(α-boranotriphosphate)-β,γ-CH2]",0%,0,insignificant activities,> 100,0,1.0 ± 2.1
"[BH3-][P+](O)(OC[C@H]1O[C@@H](n2cnc3c(N)nc(SC)nc32)[C@H](O)[C@@H]1O)OP(=O)(O)CP(=O)(O)O (single isomer, unassigned) [4A, 2-MeS–adenosine-5′-O-(α-boranotriphosphate)-β,γ-CH2]",10% and 9.9 ± 0.5%,0,insignificant activities; also recorded: inactivity,> 100,2.0 ± 0.26,<1
